# Measurements taken from the OligoGym collection.
# Oligonucleotides are written 5' to 3', each unit as a sugar letter and its base; * is a phosphorothioate linkage, no mark a phosphodiester; rarer units and linkages stand in square brackets, end groups in braces. Plain capitals give the bases only. Oligonucleotides are given in HELM: sugar(base)linkage, 5' to 3'; d 2'-deoxyribose, r ribose, m 2'-O-methylribose, p phosphate. ss, as = sense and antisense strand; d = 2'-deoxy (DNA); r = 2'-OH (RNA)
# Target: UBE2G1
# Assay: reporter assay of Huesken 2005
# Settings: siRNA
# Note: test concentration or dose not given here.
row,Substance,normalised inhibition (eCFP-eYFP dual reporter)
1,sense rUrUrUrCrUrArUrUrCrUrUrCrArUrGrArGrCrCdTdT / antisense rGrGrCrUrCrArUrGrArArGrArArUrArGrArArAdTdG,29.5%

# Target: UBE2N
# Assay: reporter assay of Huesken 2005
# Settings: siRNA
row,Substance,normalised inhibition (eCFP-eYFP dual reporter)
1,RNA1{r(A)p.r(A)p.r(G)p.r(C)p.r(C)p.r(G)p.r(A)p.r(A)p.r(C)p.r(C)p.r(A)p.r(G)p.r(A)p.r(U)p.r(G)p.r(A)p.r(G)p.r(A)p.r(G)p.d(T)p.d(T)}|RNA2{r(C)p.r(U)p.r(C)p.r(U)p.r(C)p.r(A)p.r(U)p.r(C)p.r(U)p.r(G)p.r(G)p.r(U)p.r(U)p.r(C)p.r(G)p.r(G)p.r(C)p.r(U)p.r(U)p.d(T)p.d(G)}$$$RNA1{StrandType:ss}|RNA2{StrandType:as}$,88.3%
2,RNA1{r(A)p.r(G)p.r(A)p.r(A)p.r(U)p.r(A)p.r(C)p.r(C)p.r(C)p.r(A)p.r(A)p.r(U)p.r(G)p.r(G)p.r(C)p.r(A)p.r(G)p.r(C)p.r(C)p.d(T)p.d(T)}|RNA2{r(G)p.r(G)p.r(C)p.r(U)p.r(G)p.r(C)p.r(C)p.r(A)p.r(U)p.r(U)p.r(G)p.r(G)p.r(G)p.r(U)p.r(A)p.r(U)p.r(U)p.r(C)p.r(U)p.d(T)p.d(C)}$$$RNA1{StrandType:ss}|RNA2{StrandType:as}$,44.7%
3,RNA1{r(A)p.r(C)p.r(G)p.r(U)p.r(U)p.r(U)p.r(C)p.r(A)p.r(U)p.r(G)p.r(A)p.r(C)p.r(C)p.r(A)p.r(A)p.r(A)p.r(A)p.r(U)p.r(U)p.d(T)p.d(T)}|RNA2{r(A)p.r(A)p.r(U)p.r(U)p.r(U)p.r(U)p.r(G)p.r(G)p.r(U)p.r(C)p.r(A)p.r(U)p.r(G)p.r(A)p.r(A)p.r(A)p.r(C)p.r(G)p.r(U)p.d(A)p.d(C)}$$$RNA1{StrandType:ss}|RNA2{StrandType:as}$,92.1%
4,RNA1{r(C)p.r(A)p.r(U)p.r(A)p.r(G)p.r(A)p.r(A)p.r(A)p.r(C)p.r(A)p.r(G)p.r(C)p.r(U)p.r(A)p.r(G)p.r(A)p.r(G)p.r(C)p.r(A)p.d(T)p.d(T)}|RNA2{r(U)p.r(G)p.r(C)p.r(U)p.r(C)p.r(U)p.r(A)p.r(G)p.r(C)p.r(U)p.r(G)p.r(U)p.r(U)p.r(U)p.r(C)p.r(U)p.r(A)p.r(U)p.r(G)p.d(G)p.d(C)}$$$RNA1{StrandType:ss}|RNA2{StrandType:as}$,95.3%
5,RNA1{r(G)p.r(A)p.r(U)p.r(C)p.r(C)p.r(A)p.r(U)p.r(U)p.r(A)p.r(G)p.r(C)p.r(A)p.r(A)p.r(A)p.r(U)p.r(G)p.r(A)p.r(U)p.r(G)p.d(T)p.d(T)}|RNA2{r(C)p.r(A)p.r(U)p.r(C)p.r(A)p.r(U)p.r(U)p.r(U)p.r(G)p.r(C)p.r(U)p.r(A)p.r(A)p.r(U)p.r(G)p.r(G)p.r(A)p.r(U)p.r(C)p.d(A)p.d(T)}$$$RNA1{StrandType:ss}|RNA2{StrandType:as}$,61.3%
6,RNA1{r(C)p.r(A)p.r(G)p.r(U)p.r(U)p.r(C)p.r(C)p.r(U)p.r(G)p.r(G)p.r(C)p.r(A)p.r(U)p.r(C)p.r(A)p.r(A)p.r(A)p.r(G)p.r(C)p.d(T)p.d(T)}|RNA2{r(G)p.r(C)p.r(U)p.r(U)p.r(U)p.r(G)p.r(A)p.r(U)p.r(G)p.r(C)p.r(C)p.r(A)p.r(G)p.r(G)p.r(A)p.r(A)p.r(C)p.r(U)p.r(G)p.d(G)p.d(T)}$$$RNA1{StrandType:ss}|RNA2{StrandType:as}$,61.4%
7,RNA1{r(A)p.r(A)p.r(G)p.r(C)p.r(C)p.r(C)p.r(A)p.r(A)p.r(G)p.r(C)p.r(C)p.r(A)p.r(U)p.r(A)p.r(G)p.r(A)p.r(A)p.r(A)p.r(C)p.d(T)p.d(T)}|RNA2{r(G)p.r(U)p.r(U)p.r(U)p.r(C)p.r(U)p.r(A)p.r(U)p.r(G)p.r(G)p.r(C)p.r(U)p.r(U)p.r(G)p.r(G)p.r(G)p.r(C)p.r(U)p.r(U)p.d(C)p.d(G)}$$$RNA1{StrandType:ss}|RNA2{StrandType:as}$,61.1%
8,RNA1{r(G)p.r(A)p.r(A)p.r(A)p.r(C)p.r(A)p.r(G)p.r(C)p.r(U)p.r(A)p.r(G)p.r(A)p.r(G)p.r(C)p.r(A)p.r(U)p.r(G)p.r(G)p.r(A)p.d(T)p.d(T)}|RNA2{r(U)p.r(C)p.r(C)p.r(A)p.r(U)p.r(G)p.r(C)p.r(U)p.r(C)p.r(U)p.r(A)p.r(G)p.r(C)p.r(U)p.r(G)p.r(U)p.r(U)p.r(U)p.r(C)p.d(T)p.d(A)}$$$RNA1{StrandType:ss}|RNA2{StrandType:as}$,100%
9,RNA1{r(U)p.r(U)p.r(G)p.r(G)p.r(G)p.r(A)p.r(A)p.r(G)p.r(A)p.r(A)p.r(U)p.r(A)p.r(U)p.r(G)p.r(U)p.r(C)p.r(U)p.r(A)p.r(G)p.d(T)p.d(T)}|RNA2{r(C)p.r(U)p.r(A)p.r(G)p.r(A)p.r(C)p.r(A)p.r(U)p.r(A)p.r(U)p.r(U)p.r(C)p.r(U)p.r(U)p.r(C)p.r(C)p.r(C)p.r(A)p.r(A)p.d(C)p.d(T)}$$$RNA1{StrandType:ss}|RNA2{StrandType:as}$,52.8%
10,RNA1{r(A)p.r(A)p.r(G)p.r(U)p.r(G)p.r(G)p.r(U)p.r(C)p.r(C)p.r(C)p.r(C)p.r(A)p.r(G)p.r(C)p.r(A)p.r(C)p.r(U)p.r(G)p.r(C)p.d(T)p.d(T)}|RNA2{r(G)p.r(C)p.r(A)p.r(G)p.r(U)p.r(G)p.r(C)p.r(U)p.r(G)p.r(G)p.r(G)p.r(G)p.r(A)p.r(C)p.r(C)p.r(A)p.r(C)p.r(U)p.r(U)p.d(A)p.d(T)}$$$RNA1{StrandType:ss}|RNA2{StrandType:as}$,48.2%
11,RNA1{r(A)p.r(G)p.r(A)p.r(U)p.r(A)p.r(U)p.r(U)p.r(U)p.r(U)p.r(G)p.r(A)p.r(A)p.r(A)p.r(G)p.r(A)p.r(U)p.r(A)p.r(A)p.r(G)p.d(T)p.d(T)}|RNA2{r(C)p.r(U)p.r(U)p.r(A)p.r(U)p.r(C)p.r(U)p.r(U)p.r(U)p.r(C)p.r(A)p.r(A)p.r(A)p.r(A)p.r(U)p.r(A)p.r(U)p.r(C)p.r(U)p.d(A)p.d(G)}$$$RNA1{StrandType:ss}|RNA2{StrandType:as}$,57.1%
12,RNA1{r(U)p.r(A)p.r(G)p.r(A)p.r(G)p.r(C)p.r(A)p.r(U)p.r(G)p.r(G)p.r(A)p.r(C)p.r(U)p.r(A)p.r(G)p.r(G)p.r(C)p.r(U)p.r(A)p.d(T)p.d(T)}|RNA2{r(U)p.r(A)p.r(G)p.r(C)p.r(C)p.r(U)p.r(A)p.r(G)p.r(U)p.r(C)p.r(C)p.r(A)p.r(U)p.r(G)p.r(C)p.r(U)p.r(C)p.r(U)p.r(A)p.d(G)p.d(C)}$$$RNA1{StrandType:ss}|RNA2{StrandType:as}$,73.8%
13,RNA1{r(U)p.r(G)p.r(A)p.r(A)p.r(A)p.r(G)p.r(A)p.r(U)p.r(A)p.r(A)p.r(G)p.r(U)p.r(G)p.r(G)p.r(U)p.r(C)p.r(C)p.r(C)p.r(C)p.d(T)p.d(T)}|RNA2{r(G)p.r(G)p.r(G)p.r(G)p.r(A)p.r(C)p.r(C)p.r(A)p.r(C)p.r(U)p.r(U)p.r(A)p.r(U)p.r(C)p.r(U)p.r(U)p.r(U)p.r(C)p.r(A)p.d(A)p.d(A)}$$$RNA1{StrandType:ss}|RNA2{StrandType:as}$,34.5%
14,RNA1{r(G)p.r(G)p.r(A)p.r(C)p.r(U)p.r(U)p.r(U)p.r(U)p.r(A)p.r(A)p.r(A)p.r(C)p.r(U)p.r(U)p.r(G)p.r(A)p.r(A)p.r(C)p.r(U)p.d(T)p.d(T)}|RNA2{r(A)p.r(G)p.r(U)p.r(U)p.r(C)p.r(A)p.r(A)p.r(G)p.r(U)p.r(U)p.r(U)p.r(A)p.r(A)p.r(A)p.r(A)p.r(G)p.r(U)p.r(C)p.r(C)p.d(C)p.d(T)}$$$RNA1{StrandType:ss}|RNA2{StrandType:as}$,87.2%
15,RNA1{r(C)p.r(C)p.r(A)p.r(U)p.r(U)p.r(A)p.r(G)p.r(C)p.r(A)p.r(A)p.r(A)p.r(U)p.r(G)p.r(A)p.r(U)p.r(G)p.r(U)p.r(A)p.r(G)p.d(T)p.d(T)}|RNA2{r(C)p.r(U)p.r(A)p.r(C)p.r(A)p.r(U)p.r(C)p.r(A)p.r(U)p.r(U)p.r(U)p.r(G)p.r(C)p.r(U)p.r(A)p.r(A)p.r(U)p.r(G)p.r(G)p.d(A)p.d(T)}$$$RNA1{StrandType:ss}|RNA2{StrandType:as}$,77.9%
16,RNA1{r(U)p.r(A)p.r(U)p.r(U)p.r(C)p.r(C)p.r(U)p.r(U)p.r(C)p.r(C)p.r(A)p.r(G)p.r(A)p.r(A)p.r(G)p.r(A)p.r(A)p.r(U)p.r(A)p.d(T)p.d(T)}|RNA2{r(U)p.r(A)p.r(U)p.r(U)p.r(C)p.r(U)p.r(U)p.r(C)p.r(U)p.r(G)p.r(G)p.r(A)p.r(A)p.r(G)p.r(G)p.r(A)p.r(A)p.r(U)p.r(A)p.d(G)p.d(T)}$$$RNA1{StrandType:ss}|RNA2{StrandType:as}$,83%
17,RNA1{r(C)p.r(U)p.r(U)p.r(U)p.r(G)p.r(A)p.r(G)p.r(G)p.r(G)p.r(A)p.r(G)p.r(G)p.r(G)p.r(A)p.r(C)p.r(U)p.r(U)p.r(U)p.r(U)p.d(T)p.d(T)}|RNA2{r(A)p.r(A)p.r(A)p.r(A)p.r(G)p.r(U)p.r(C)p.r(C)p.r(C)p.r(U)p.r(C)p.r(C)p.r(C)p.r(U)p.r(C)p.r(A)p.r(A)p.r(A)p.r(G)p.d(G)p.d(G)}$$$RNA1{StrandType:ss}|RNA2{StrandType:as}$,70.6%
18,RNA1{r(U)p.r(U)p.r(C)p.r(A)p.r(U)p.r(G)p.r(U)p.r(G)p.r(G)p.r(U)p.r(C)p.r(A)p.r(U)p.r(U)p.r(G)p.r(C)p.r(U)p.r(G)p.r(G)p.d(T)p.d(T)}|RNA2{r(C)p.r(C)p.r(A)p.r(G)p.r(C)p.r(A)p.r(A)p.r(U)p.r(G)p.r(A)p.r(C)p.r(C)p.r(A)p.r(C)p.r(A)p.r(U)p.r(G)p.r(A)p.r(A)p.d(A)p.d(A)}$$$RNA1{StrandType:ss}|RNA2{StrandType:as}$,39.5%
19,RNA1{r(A)p.r(U)p.r(C)p.r(A)p.r(U)p.r(C)p.r(C)p.r(U)p.r(A)p.r(A)p.r(U)p.r(G)p.r(U)p.r(A)p.r(G)p.r(A)p.r(C)p.r(A)p.r(A)p.d(T)p.d(T)}|RNA2{r(U)p.r(U)p.r(G)p.r(U)p.r(C)p.r(U)p.r(A)p.r(C)p.r(A)p.r(U)p.r(U)p.r(A)p.r(G)p.r(G)p.r(A)p.r(U)p.r(G)p.r(A)p.r(U)p.d(A)p.d(A)}$$$RNA1{StrandType:ss}|RNA2{StrandType:as}$,46.4%
20,RNA1{r(C)p.r(A)p.r(A)p.r(C)p.r(G)p.r(C)p.r(C)p.r(C)p.r(G)p.r(U)p.r(U)p.r(A)p.r(U)p.r(U)p.r(U)p.r(U)p.r(C)p.r(A)p.r(U)p.d(T)p.d(T)}|RNA2{r(A)p.r(U)p.r(G)p.r(A)p.r(A)p.r(A)p.r(A)p.r(U)p.r(A)p.r(A)p.r(C)p.r(G)p.r(G)p.r(G)p.r(C)p.r(G)p.r(U)p.r(U)p.r(G)p.d(C)p.d(T)}$$$RNA1{StrandType:ss}|RNA2{StrandType:as}$,87.1%
